Measurements: patent publication US10392348B2, “2-oxo-3,4-dihydroquinoline compounds as plant growth regulators” (Syngenta Participations AG, priority 2015, dated 2019)
Where two headings read alike, the source gives them in different places.

Key:
[1] = system: soybean plants (variety S20-G7); assay: Reduced plant water use in soybean (foliar spray, repeated weighing of pots); type: in vivo; details: Glycine max, foliar, Table B1, sprayed at 500 μM, vs negative control
In short: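 Daytime water use was tracked by weighing pots of 12-day-old soybean after foliar spray of compound formulated as EC plus EXTRAVON 1 g/20 L. Cumulative total (0-2.5 DAA) sums a.m. and p.m. readings; values baseline-adjusted by covariance analysis against formulation-only negative control.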

[2] = system: corn plants (variety NK OCTET); assay: Reduced plant water use in corn (foliar spray, repeated weighing of pots); type: in vivo; details: Zea mays, corn plants sprayed at 500 μM, average of 6 pots
Method: Compounds were tested for their effect on reducing plant water use as follows. The compounds were applied by foliar spray to 12 day old corn plants (variety NK OCTET) grown in controlled environment plant growth chambers. All compounds were applied using an emulsifiable concentrate (EC) formulation that was diluted to the desired concentrations with water containing 0.4% of the adjuvant rape seed methyl ester. Plant water use during the day was assessed by repeated weighing of the pots in which the plants were grown before and after application of the compounds at the indicated times (expressed in days after application (DAA)). The water use data before application was used to correct any differences in water use arising due to non-treatment effects (e.g. due to differences in plant size). The untransformed water use values were subjected to an analysis of covariance, fitting the effect of treatment and using the baseline water use 1 day before application as a covariate. Application of the chemicals (0 DAA) takes place approximately between 08:00 and 09:30 a.m. WU is measured within day time (chamber light is on 06:00 to 20:00) at these timepoints: 0 DAA a.m. (10:30-12:50), 0 DAA p.m. (14:00-19:50), 1 DAA a.m. (07:30-12:50), 1 DAA p.m. (14:00-19:50), 2 DAA a.m. (07:30-12:50) and 2 DAA p.m. (14:00-19:50). The cumulative total WU (0-2.5 DAA) is calculated by summing the WU data mentioned above.

[3] = 0 h, 0 DAA a.m. (10:30-12:50), read-out: % WU 0 DAA AM
[4] = 24 h, 1 DAA a.m. (7:30-12:50), read-out: % WU 1DAA AM
[5] = 24 h, 1 DAA p.m. (14:00-19:50), read-out: % WU 1DAA PM
[6] = 48 h, 2 DAA a.m. (07:30-12:50), read-out: % WU 2 DAA AM
[7] = 48 h, 2 DAA p.m. (14:00-19:50), read-out: % WU 2 DAA PM
[8] = 60 h, cumulative total WU (0-2.5 DAA), read-out: % WU Total 0 to 2.5 DAA
[9] = 0 h, water use during day time vs negative control, 0 DAA a.m. (10:30-12:50), read-out: % WU 0 DAA AM
[10] = 0 h, water use during day time vs negative control, 0 DAA p.m. (14:00-19:50), read-out: % WU 0DAA PM
[11] = 24 h, water use during day time vs negative control, 1 DAA a.m. (07:30-12:50), read-out: % WU 1DAA AM
[12] = 24 h, water use during day time vs negative control, 1 DAA p.m. (14:00-19:50), read-out: % WU 1DAA PM
[13] = 48 h, water use during day time vs negative control, 2 DAA a.m. (07:30-12:50), read-out: % WU 2 DAA AM
[14] = 48 h, water use during day time vs negative control, 2 DAA p.m. (14:00-19:50), read-out: % WU 2 DAA PM
[15] = 60 h, cumulative total water use 0-2.5 DAA (sum of the time points) vs negative control, read-out: % WU Total 0 to 2.5 DAA

Row | Compound | melting point [°C] | change in vivo at 500 µM [1, 3] [%] | change in vivo at 500 µM [1, 4] [%] | change in vivo at 500 µM [1, 5] [%] | change in vivo at 500 µM [1, 6] [%] | change in vivo at 500 µM [1, 7] [%] | change in vivo at 500 µM [1, 8] [%] | change in vivo at 500 µM [2, 9] [%] | change in vivo at 500 µM [2, 10] [%] | change in vivo at 500 µM [2, 11] [%] | change in vivo at 500 µM [2, 12] [%] | change in vivo at 500 µM [2, 13] [%] | change in vivo at 500 µM [2, 14] [%] | change in vivo at 500 µM [2, 15] [%]
1 | CCCN1C(=O)CCc2cc(CNS(=O)(=O)c3ccsc3)ccc21 [Compound 3.068, N-[(2-oxo-1-propyl-3,4-dihydroquinolin-6-yl)methyl]thiophene-3-sulfonamide] | 150 to 154 | -46 | -39.3 | -31.6 | -22.3 | -15.3 | -31.6 | -25.5 | -24.9 | -15.8 | -13.1 | -8.9 | -9.4 | -14.8
2 | C/C=C/S(=O)(=O)NCc1ccc2c(c1)CCC(=O)N2CCC [Compound 3.060, (E)-N-[(2-oxo-1-propyl-3,4-dihydroquinolin-6-yl)methyl]prop-1-ene-1-sulfonamide] | 95 to 99 | -7.9 | -5.8 | -2.6 | -5.4 | -2.7 | -4.6 | -14.8 | -10 | -10.6 | -8.4 | -8.2 | -6.4 | -9.3
3 | CCN1C(=O)CCc2cc(CNS(=O)(=O)c3ccc(F)cc3F)ccc21 [Compound 2.006, N-[(1-ethyl-2-oxo-3,4-dihydroquinolin-6-yl)methyl]-2,4-difluoro-benzenesulfonamide] | 167 to 168 | -23.4 | -13.8 | -13 | -10.4 | -7.3 | -13.2 | -12.5 | -6.7 | -6.5 | -5.5 | -3 | -3.2 | -5.4
4 | CCN1C(=O)CCc2cc(CNS(=O)(=O)c3ccsc3)ccc21 [Compound 2.068, N-[(1-ethyl-2-oxo-3,4-dihydroquinolin-6-yl)methyl]thiophene-3-sulfonamide] | 128 to 131 | -27 | -18.1 | -14.7 | -11.6 | -7.5 | -15.3 | -16.6 | -15.1 | -12.9 | -11.4 | -9.2 | -9.1 | -11.8
5 | CCN1C(=O)CCc2cc(CNS(=O)(=O)c3ccc(C)s3)ccc21 [Compound 2.061, N-[(1-ethyl-2-oxo-3,4-dihydroquinolin-6-yl)methyl]-5-methyl-thiophene-2-sulfonamide] | 149 to 152 | -50.4 | -7.9 | -2.2 | -0.5 | -1.2 | -13.7 | -18.8 | -10.8 | -7.5 | -2.8 | -1.6 | -0.8 | -6.2
6 | CCCN1C(=O)CCc2cc(CNS(=O)(=O)c3ccc(C)s3)ccc21 [Compound 3.061, 5-methyl-N-[(2-oxo-1-propyl-3,4-dihydroquinolin-6-yl)methyl]thiophene-2-sulfonamide] | 151 to 154 | -47.8 | 1 | 3.4 | 1.6 | 1.2 | -13.7 | -20.8 | -19.1 | -9.5 | -7.5 | -2.8 | -3.9 | -9

Second part, led by results:

Row | melting point [°C] | Compound | change in vivo at 500 µM [1, 3] [%] | change in vivo at 500 µM [1, 4] [%] | change in vivo at 500 µM [1, 5] [%] | change in vivo at 500 µM [1, 6] [%] | change in vivo at 500 µM [1, 7] [%] | change in vivo at 500 µM [1, 8] [%] | change in vivo at 500 µM [2, 9] [%] | change in vivo at 500 µM [2, 10] [%] | change in vivo at 500 µM [2, 11] [%] | change in vivo at 500 µM [2, 12] [%] | change in vivo at 500 µM [2, 13] [%] | change in vivo at 500 µM [2, 14] [%] | change in vivo at 500 µM [2, 15] [%]
7 | 176 to 183 | CCN1C(=O)CCc2cc(CNS(=O)(=O)c3ccc(Br)cc3)ccc21 [Compound 2.002, 4-bromo-N-[(1-ethyl-2-oxo-3,4-dihydroquinolin-6-yl)methyl]benzenesulfonamide] | -10.4 | -6.5 | -4 | -5.6 | -4.2 | -5.8 | -10.8 | -3.6 | -3.2 | -3.9 | -1.2 | -1.7 | -3.2
8 | 143 to 144 | CCCN1C(=O)CCc2cc(CNS(=O)(=O)c3ccc(F)cc3)ccc21 [Compound 3.009, 4-fluoro-N-[(2-oxo-1-propyl-3,4-dihydroquinolin-6-yl)methyl]benzenesulfonamide] | -17.5 | -9.4 | -6.4 | -5.5 | -4.2 | -8.5 | -16.9 | -13.9 | -13.2 | -11.9 | -9 | -8.2 | -11.6
9 | 143 to 145 | CCCN1C(=O)CCc2cc(CNS(=O)(=O)c3ccc(Br)cc3)ccc21 [Compound 3.002, 4-bromo-N-[(2-oxo-1-propyl-3,4-dihydroquinolin-6-yl)methyl]benzenesulfonamide] | -22.5 | -13.7 | -9.4 | -6.7 | -4.7 | -11.4 | -16.3 | -12.2 | -13.4 | -10.5 | -9.5 | -7 | -10.9
10 | 180 to 181 | CCN1C(=O)CCc2cc(CNS(=O)(=O)c3ccc(C(F)(F)F)cc3)ccc21 [Compound 2.015, N-[(1-ethyl-2-oxo-3,4-dihydroquinolin-6-yl)methyl]-4-(trifluoromethyl)benzenesulfonamide] |  |  |  |  |  |  | -8.9 | -3.4 | -4 | -2.6 | -1.9 | -1 | -2.9
